# Laboratory results reported in patent US20260007133A1, “HERBICIDAL COMPOSITION COMPRISING AZINE COMPOUNDS” (BASF SE, priority 2022, published 2026).
# Where two headings read alike, the source gives them in different places.
# Columns and labels:
# Assay type in all cases: in vivo
# Setaria viridis [1] = assay: Greenhouse pre-emergence (PRE) herbicidal test on SETVI; conditions: Setaria viridis, pre-emergence
# Outline: (§1)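 Damage was rated visually on a 0 to 100 scale at 20 days after treatment, where 0 meant normal growth and 100 meant no emergence or complete kill of above-ground parts. Compounds were applied in water to freshly sown loamy-sand pots.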
# Ambrosia artemisiifolia = assay: Greenhouse pre-emergence (PRE) herbicidal test on AMBEL; conditions: Ambrosia artemisiifolia, pre-emergence; for inhibition at 4 g/ha: use rate 4 gai/ha; for inhibition at 8 g/ha: use rate 8 gai/ha
# AMAPA [2] = assay: Greenhouse post-emergence (POST) herbicidal test on AMAPA; conditions: post-emergence, 480 h, use rate 2 gai/ha, 20 DAT
# AMAPA [3] = assay: Greenhouse pre-emergence (PRE) herbicidal test on AMAPA; conditions: pre-emergence; for inhibition at 8 g/ha: use rate 8 gai/ha
# Setaria viridis [4] = assay: Greenhouse post-emergence (POST) herbicidal test on SETVI; conditions: 480 h, 20 DAT
# Experimental: The culture containers used were plastic pots containing loamy sand with approximately 3.0% of humus as substrate. The seeds of the test plants were sown separately for each species.
# For the post-emergence treatment, the test plants were grown to a plant height of from 3 to 15 cm, depending on the plant habit, and only then treated with the active compounds which had been suspended or emulsified in water. To this end, the test plants were either sown directly, and grown in the same containers, or they were first grown separately as seedlings and transplanted into the test containers a few days prior to treatment.
# Depending on the species, the plants were kept at 10-25° C. and 20-35° C., respectively.
# The test period extended over 2 to 4 weeks. During this time, the plants were tended and their response to the individual treatments was evaluated.
# Evaluation was carried out using a scale from 0 to 100. 100 means no emergence of the plants, or complete destruction of at least the above-ground parts, and 0 means no damage or normal course of growth. A good herbicidal activity is given at values of at least 70, and very good herbicidal activity is given at values of at least 85.
# If not stated differently, the respective components A and B, and if appropriate, C were formulated as a 5% by weight strength emulsion concentrate and, with addition of the amount of solvent system, introduced into the spray liquor used for applying the active compound.
# As indicated application was either post emergent (POST) at the respective growth stage (GS) of the weed (BBCH code), or pre-emergent (PRE).
# Assessment was 20 days after treatment (DAT).
# Echinochloa crus-galli = assay: Greenhouse post-emergence (POST) herbicidal test on ECHCG; conditions: Echinochloa crus-galli, post-emergence; for inhibition at 4 g/ha: use rate 4 gai/ha
# Outline: (§2)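 Sow or transplant seedlings into loamy-sand pots; grow to 3–15 cm; spray aqueous suspension/emulsion of actives from a 5% by weight emulsion concentrate; hold at 10-25° C or 20-35° C depending on species; score injury 0–100 at 20 DAT.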
# Alopecurus myosuroides = assay: Greenhouse pre-emergence (PRE) herbicidal test on ALOMY
# Outline: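 Visual 0–100 rating at 20 days after treatment; 0 = normal growth, 100 = no emergence or complete kill of shoots. Pre-emergent application to seeded pots of loamy sand (~3.0% humus), species-dependent temperature 10-25° C or 20-35° C.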
# Avena fatua = assay: Greenhouse pre-emergence (PRE) herbicidal test on AVEFA; conditions: use rate 8 gai/ha
# Outline: as §1
# Galium aparine = assay: Greenhouse pre-emergence (PRE) herbicidal test on GALAP; conditions: Galium aparine, pre-emergence; PRE; GALAP; use rate 8 gai/ha
# Outline: as §1
# Euphorbia heterophylla = assay: Greenhouse post-emergence (POST) herbicidal test on EPHHL; conditions: Euphorbia heterophylla, post-emergence
# Outline: as §2
# Commelina benghalensis = assay: Greenhouse post-emergence (POST) herbicidal test on COMBE; conditions: 480 h, use rate 4 gai/ha, 20 DAT
# Outline: as §2
# Polygonum convolvulus = assay: Greenhouse pre-emergence (PRE) herbicidal test on POLCO; conditions: Fallopia convolvulus, pre-emergence, use rate 8 gai/ha
# Outline: as §1
# Ipomoea hederacea = assay: Greenhouse post-emergence (POST) herbicidal test on IPOHE; conditions: Ipomoea hederacea, post-emergence
# Outline: as §2
smiles,measurement,setting,value
COc1c(Br)cc(F)c(F)c1Nc1nc(N)nc(C(C)(C)F)n1 [Compound I-2],pest or weed control at 2 g/ha,"Setaria viridis [1]; 432 h, PRE, SETVI, I-2 solo 2 gai/ha, 18 DAT",70%
same,pest or weed control at 2 g/ha,"Setaria viridis [1]; 480 h, PRE, 2 gai/ha, 20 DAT",10%
same,inhibition at 2 g/ha,"Setaria viridis [1]; 480 h, PRE, SETVI, 2 gai/ha, 20 DAT, read-out: % activity solo application",25%
same,inhibition at 2 g/ha,"Setaria viridis [1]; 480 h, SETVI PRE, 20 DAT, use rate 2 gai/ha, read-out: % activity",10%
same,inhibition at 2 g/ha,"Setaria viridis [1]; PRE, SETVI, use rate 2 gai/ha, read-out: % activity",10%
same,inhibition at 4 g/ha,"Setaria viridis [1]; PRE, SETVI, use rate 4 gai/ha",30%
same,inhibition at 2 g/ha,"Ambrosia artemisiifolia; 240 h, PRE, use rate 2 gai/ha, 10 DAT, read-out: % activity",20%
same,inhibition at 4 g/ha,"Ambrosia artemisiifolia; 240 h, PRE, 10 DAT",20%
same,inhibition at 8 g/ha,"Ambrosia artemisiifolia; 240 h, PRE, 10 DAT, read-out: % activity",35%
same,inhibition at 16 g/ha,"Ambrosia artemisiifolia; 240 h, PRE, use rate 16 gai/ha, 10 DAT",50%
same,pest or weed control at 8 g/ha,"Ambrosia artemisiifolia; 432 h, PRE, AMBEL, I-2 solo 8 gai/ha, 18 DAT",70%
same,inhibition at 2 g/ha,"Ambrosia artemisiifolia; 480 h, AMBEL PRE, 20 DAT, use rate 2 gai/ha, read-out: % activity",35%
same,inhibition at 8 g/ha,"Ambrosia artemisiifolia; 480 h, AMBEL PRE, 20 DAT, read-out: % activity",90%
same,pest or weed control at 8 g/ha,"Ambrosia artemisiifolia; 480 h, PRE, 8 gai/ha, 20 DAT",90%
same,inhibition at 2 g/ha,"Ambrosia artemisiifolia; 480 h, PRE, AMBEL, 2 gai/ha, 20 DAT, read-out: % activity solo application",0%
same,inhibition at 2 g/ha,"Ambrosia artemisiifolia; 480 h, PRE, AMBEL, use rate 2 gai/ha, 20 DAT, read-out: solo application % activity",0%
same,inhibition at 8 g/ha,"Ambrosia artemisiifolia; 480 h, PRE, 20 DAT, read-out: % activity",80%
same,inhibition at 2 g/ha,"Ambrosia artemisiifolia; AMBEL PRE, use rate 2 gai/ha, read-out: % activity",30%
same,inhibition at 4 g/ha,"Ambrosia artemisiifolia; PRE, AMBEL",20%
same,inhibition at 2 g/ha,AMAPA [2],30%
same,inhibition at 4 g/ha,"AMAPA [3]; 240 h, use rate 4 gai/ha, 10 DAT",40%
same,inhibition at 8 g/ha,"AMAPA [3]; 240 h, 10 DAT",70%
same,inhibition at 16 g/ha,"AMAPA [3]; 240 h, use rate 16 gai/ha, 10 DAT",75%
same,inhibition at 2 g/ha,"AMAPA [3]; 480 h, use rate 2 gai/ha, 20 DAT",40%
same,inhibition at 8 g/ha,"AMAPA [3]; 480 h, 20 DAT",75%
same,inhibition at 4 g/ha,Setaria viridis [4]; use rate 4 gai/ha,20%
same,inhibition at 8 g/ha,Setaria viridis [4]; use rate 8 gai/ha,25%
same,pest or weed control at 2 g/ha,"Echinochloa crus-galli; 432 h, POST, ECHCG, I-2 solo 2 gai/ha, 18 DAT",0%
same,pest or weed control at 8 g/ha,"Echinochloa crus-galli; 432 h, POST, ECHCG, I-2 solo 8 gai/ha, 18 DAT",15%
same,inhibition at 2 g/ha,"Echinochloa crus-galli; 480 h, ECHCG POST, 20 DAT, use rate 2 gai/ha, read-out: % activity",0%
same,inhibition at 4 g/ha,"Echinochloa crus-galli; 480 h, POST, ECHCG, 20 DAT",0%
same,inhibition at 4 g/ha,"Echinochloa crus-galli; POST, ECHCG",25%
same,% activity,"Alopecurus myosuroides; ALOMY PRE, use rate 8 gai/ha",85%
same,pest or weed control at 2 g/ha,"Alopecurus myosuroides; Alopecurus myosuroides, pre-emergence, 432 h, PRE, ALOMY, I-2 solo 2 gai/ha, 18 DAT, read-out: % activity",5%
same,pest or weed control at 8 g/ha,"Alopecurus myosuroides; Alopecurus myosuroides, pre-emergence, 432 h, PRE, ALOMY, I-2 solo 8 gai/ha, 18 DAT",75%
same,pest or weed control at 8 g/ha,"Alopecurus myosuroides; Alopecurus myosuroides, pre-emergence, 480 h, PRE, 8 gai/ha, 20 DAT",5%
same,inhibition at 2 g/ha,"Alopecurus myosuroides; Alopecurus myosuroides, pre-emergence, 480 h, PRE, ALOMY, 2 gai/ha, 20 DAT, read-out: % activity solo application",20%
same,inhibition at 8 g/ha,"Alopecurus myosuroides; Alopecurus myosuroides, pre-emergence, 480 h, PRE, ALOMY, 8 gai/ha, 20 DAT, read-out: % activity solo application",75%
same,inhibition at 8 g/ha,"Alopecurus myosuroides; Alopecurus myosuroides, pre-emergence, 480 h, PRE, ALOMY, use rate 8 gai/ha, 20 DAT, read-out: solo application % activity",75%
same,inhibition at 16 g/ha,"Alopecurus myosuroides; Alopecurus myosuroides, pre-emergence, 480 h, PRE, ALOMY, use rate 16 gai/ha, 20 DAT",95%
same,inhibition at 2 g/ha,"Alopecurus myosuroides; Alopecurus myosuroides, pre-emergence, 480 h, PRE, use rate 2 gai/ha, 20 DAT, read-out: % activity",40%
same,inhibition at 8 g/ha,"Alopecurus myosuroides; Alopecurus myosuroides, pre-emergence, ALOMY PRE, use rate 8 gai/ha, read-out: % activity",70%
same,inhibition at 2 g/ha,"Alopecurus myosuroides; Alopecurus myosuroides, pre-emergence, PRE, ALOMY, use rate 2 gai/ha, read-out: % activity",20%
same,inhibition at 8 g/ha,Avena fatua,50%
same,inhibition at 8 g/ha,Galium aparine,15%
same,pest or weed control at 2 g/ha,"Euphorbia heterophylla; 432 h, POST, EPHHL, I-2 solo 2 gai/ha, 18 DAT",25%
same,inhibition at 2 g/ha,"Euphorbia heterophylla; 480 h, EPHHL POST, 20 DAT, use rate 2 gai/ha, read-out: % activity",10%
same,pest or weed control at 2 g/ha,"Euphorbia heterophylla; 480 h, POST, 2 gai/ha, 20 DAT",10%
same,inhibition at 8 g/ha,"Euphorbia heterophylla; 480 h, POST, EPHHL, 8 gai/ha, 20 DAT, read-out: % activity solo application",30%
same,inhibition at 4 g/ha,"Euphorbia heterophylla; 480 h, POST, EPHHL, use rate 4 gai/ha, 20 DAT",50%
same,inhibition at 8 g/ha,"Euphorbia heterophylla; 480 h, POST, EPHHL, use rate 8 gai/ha, 20 DAT, read-out: % activity",60%
same,inhibition at 4 g/ha,Commelina benghalensis,0%
same,inhibition at 8 g/ha,Polygonum convolvulus,80%
same,inhibition at 2 g/ha,"Ipomoea hederacea; 480 h, IPOHE POST, 20 DAT, use rate 2 gai/ha, read-out: % activity",30%
same,inhibition at 8 g/ha,"Ipomoea hederacea; 480 h, IPOHE POST, 20 DAT, use rate 8 gai/ha, read-out: % activity",80%
same,pest or weed control at 2 g/ha,"Ipomoea hederacea; 480 h, POST, 2 gai/ha, 20 DAT",30%
same,pest or weed control at 8 g/ha,"Ipomoea hederacea; 480 h, POST, 8 gai/ha, 20 DAT",80%
same,inhibition at 2 g/ha,"Ipomoea hederacea; 480 h, POST, IPOHE, 2 gai/ha, 20 DAT, read-out: % activity solo application",30%
same,inhibition at 2 g/ha,"Ipomoea hederacea; 480 h, POST, IPOHE, use rate 2 gai/ha, 20 DAT, read-out: % activity",10%
same,inhibition at 4 g/ha,"Ipomoea hederacea; 480 h, POST, IPOHE, use rate 4 gai/ha, 20 DAT",35%
same,inhibition at 2 g/ha,"Ipomoea hederacea; POST, IPOHE, use rate 2 gai/ha, read-out: % activity",30%
